Entries after “also recorded” stand apart in the source; their conditions may differ.
Legend:
[1] = tested on: RPL10A, RPL4, RPS6, RPS15A, MYOD1, DES; test: Immunoblot of ribosomal proteins and myogenic factors; format: cell-based, human; details: DUX4 pulse+IFNG relative to IFNG
Experimental: Protein samples were harvested in RIPA buffer [150 mM NaCl, 1% NP-40, 0.5% Na-deocycholate, 1% SDS, 25 mM Tris-HCl pH7.4] supplemented with protease and phosphatase inhibitor tablets (Pierce), followed by sonication in Diagenode Bioruptor. Lysate was cleared by centrifugation at 16000×g and quantified using a Pierce BCA assay (Thermo Fisher Scientific). Samples were run on NuPAGE precast polyacrylamide gels (Invitrogen) and transferred to PVDF membrane. Membranes were blocked in PBS containing 0.1% Tween-20 and 5% non-fat dry milk before overnight incubation at 4° C. with primary antibodies (see resource table for a list of antibodies used in this study). Membranes were incubated with horseradish peroxidase-conjugated secondary antibodies for 1 hour at room temperature and SuperSignal chemiluminescent substrate (Thermo Scientific) was used for detection on film with a Mini-medical 90 processor. Membranes were stripped with Restore Western Blot Stripping Buffer (Pierce).

[2] = tested on: HLA-A, HLA-B, HLA-C, PSMB8, PSMB9, PSMB10 mRNA; test: mRNA levels of MHC-I and immunoproteasome genes (RT-PCR, RNA-seq); format: cell-based, human; details: MB135iDUX4 cells
Experimental: Myoblasts were transfected with either (final concentrations) 10 μM 2′,3′-cGAMP (Sigma Aldrich), 2 μg/mL poly(I:C) (Invitrogen), or 1 μg/mL 3′ppp-dsRNA RIG-I ligand (Dan Stetson Lab, UW) using Lipofectamine 2000 according to manufacturer's protocol, or were stimulated with 1000U IFNβ (PeproTech) or 200 ng/ml IFNγ (R+D Systems) by addition directly to cell culture medium. After 16 hours of immune stimulation, RNA was collected from cells using the NucleoSpin RNA Kit (Macherey-Nagel) according to manufacturer's instructions. RNA samples were quantified by nanodrop and 1 μg of RNA per sample was treated with DNase I Amplification Grade (Thermo Fisher), and then synthesized into cDNA using the Superscript IV First-Strand Synthesis System, including oligo dT primers (Invitrogen). qPCR was run in 384-well plates on an Applied Biosystems QuantStudio 6 Flex Real-Time PCR System (ABI) and analyzed in Microsoft Excel.
Total RNA was isolated using the NucleoSpin RNA kit (Machery-Nagel) or Direct-zol RNA Mini-Prep Kit (Zymo Research) according to manufacturer's instructions. RNA-seq libraries were prepared using the Illumina TruSeq RNA Sample Prep v2 Kit and sequenced using 50 bp paired-end sequencing on the Illumina NextSeq platform by the Fred Hutchinson Cancer Center Genomics Core.

STAT1 = test: Anti-FLAG co-immunoprecipitation and western blot for STAT1; format: binding, human; details: anti-FLAG IP from MB135 cells ± IFNG
Experimental: Centrifugation at 2500 rcf at 4° C. for 5 min pelleted the nuclei, supernatant was discarded, and nuclei resuspended in 1 mL IP buffer pH 7.4 (25 mM Tris-HCl pH 7.5, 175 mM NaCl, 1 mM EDTA, 0.2% NP-40, 5% glycerol) and incubated for 1 hour at 4° C. with rotation then spun at 21000 rcf for 10 minutes at 4° C. to pellet insoluble debris. Protein concentration was determined using the Pierce BCA Protein Assay Kit (ThermoFisher, 23225). An equivalent amount of protein per sample was pre-cleared with Dynabeads Protein G (Invitrogen) bound to mouse IgG (Abcam #131368) for 1 hour at 4° C. with rotation. FLAG-tagged constructs were then immunoprecipitated with Dynabeads Protein G beads coupled to mouse anti-FLAG M2 mAb (Sigma F3165) for 3 hours at 4° C. with rotation. Beads were washed 3× with 1 mL IP buffer and eluted by adding 2× NuPage LDS Sample Buffer (Thermo Fisher, diluted from 4× with PBS) to the beads and heating for 10 minutes at 70° C.
Antibodies against STAT1 [EPR4407] (ab109320), pSTAT1 Y701 [M135] (ab29045), pSTAT1 S727 [EPR3146] (ab109461), YBX1 [EP2708Y] (ab76149), PABPC1 (ab21060), hnRNPM [EPR13509 (B)] (ab177957), PRKDC [Y393] (ab32566), and HSP90AB1 [EPR16621] (ab203085) were purchased from Abcam. Antibodies against FLAG tag [M2] (F1804) and [M2] (F3146) were purchased from Sigma Aldrich. Antibodies against DDX3X [D19B4] (8192S), hnRNPK [R332] (4675S), TRIM28 [C42G12] (4124S), PPP2R1A [81G5] (2041S), NCL [D4C70] (14574S), and MYC tag [71D10] (2278S), and IDO1 [D5J4E] (86630S) were purchased from Cell Signaling Technology. Antibodies against hnRNPU (14599-1-AP), CDK4 (11026-1-AP), and HAT1 (11432-1-AP) were purchased from ProteinTech. The antibody against HSPA8 [SR39-04] (PIMA532002) was purchased from ThermoFisher. The antibody against DUX4 (P2G4) was described previously (Geng et al., 2011, Immunodetection of human double homeobox 4. Hybridoma (Larchmt) 30, 125-130). The antibodies Goat anti-Rabbit IgG HRP (ThermoFisher, A27036) and Rat anti-Mouse IgG HRP for IP (Abcam, ab131368) were used as secondary antibodies against rabbit and mouse primary antibodies for western blotting.

Question: For “DUX4: human DUX4 protein SEQ ID NO:3 expressed from doxycycline inducible codon altered transgene SEQ ID NO:2”, which “protein levels of ribosomal proteins and myogenic factors” value [1] is on record?
Answer: RPL10A, RPL4, RPS6, and RPS15A are suppressed by DUX4; also recorded: both were suppressed at the protein level

Question: What about the “effect on IFNG-induced mRNAs of MHC class I / immunoproteasome genes, continuous protocol” value [2] of the same substance?
Answer: profound inhibition of the IFNG-induction of the mRNA for MHC class I genes; also recorded: partially suppresses the IFNG induction of the mRNAs for PSMB8, 9, and 10; also recorded: partly blocked IFNG stimulation of HLA-A, HLA-B, HLA-C, PSMB8, PMSB9, and PSMB10 mRNA levels

Question: What about the “effect on IFNG-induced mRNAs of MHC class I / immunoproteasome genes, pulsed protocol” value [2] of the same substance?
Answer: little suppression of their mRNAs; also recorded: nearly full induction of these mRNAs; also recorded: still exhibited IFNG-induced mRNA levels significantly above untreated samples

Question: What does the source list for “longCTD: 3×FLAG tag and nls in frame with carboxyterminal 271 amino acids of DUX4 (aa154-424), SEQ ID NOS: 8-9”?
Answer: co-immunoprecipitation with STAT1 / phosphorylated STAT1 (STAT1; listed as DUX4-CTD): phosphorylation at Y701 is necessary for enhanced interaction; also recorded: preferentially interacts with pSTAT1-Y701; co-immunoprecipitation with STAT1 / phosphorylated STAT1 (STAT1; listed as DUX4 CTD): showed stronger interaction with phosphorylated STAT1; co-immunoprecipitation with STAT1 / phosphorylated STAT1 (STAT1; listed as DUX4 longCTD): both show binding to STAT1; also recorded: STAT1 is associated

Source: patent US20250339531A1, “DUX4 POLYPEPTIDES AND NUCLEIC ACIDS FOR TREATING INFLAMMATORY AND AUTOIMMUNE CONDITIONS” (Fred Hutchinson Cancer Center, priority 2021, published 2025)
